Laboratory results as given in US20100173832A1, “ANTICANCEROUS POLYMERIC AGENTS” (TECHNION RESEARCH & DEVELOPMENT FOUNDATION LTD., priority 2007, published 2010).

Assay: XTT cell viability assay, non-cancerous cardiac fibroblasts (CF)
Format: cell-based, rat
Details: primary cardiac fibroblasts (CF); primary non-cancerous rat cardiac fibroblasts, XTT assay; read-out: CF lethal concentration
From the text: Primary non-cancerous rat cardiac fibroblasts (CF);
As a routine cancer cell killing assay for assessment of antitumor activity, 2,3-bis(2-methoxy-4-nitro-5-sulfophenyl)-2H-tetrazolium-5-carboxanilide inner salt (XTT) reduction assay was used, utilizing a commercial kit such as, for example, Cell Proliferation XTT Kit, Cat. No. 20-300-1000, Biological Industries Ltd., Kibbutz Beit Haemek, Israel. XTT is a tetrazolium salt which is cleaved to formazan colored compounds by the mitochondrial dehydrogenase enzymes indicating proper mitochondrial activity in intact cells.
Thereafter, a series of increasing concentrations of the polymers were added. After another 24 hours of incubation, XTT reaction solution was added (50 μl of XTT per 100 μl of cell culture medium). The optical density of the cells was measured at 450 nm by ELISA plate reader after 2-4 hours XTT incubation. Cell viability was determined relative to a control having no polymer added thereto.
“Rat primary cardiac fibroblast CF” represents the lethal concentration in μM as measured against CF cell line, measured as described hereinabove in the cell proliferation XTT assay (column 8 in Table 3);

Structure (SMILES) | CC50 at 24 h [µM]
CCCCCCCCCCCC(=O)N[C@@H](CCCCN)C(=O)NCCCCCCCCCCCC(=O)N[C@@H](CCCCN)C(=O)NCCCCCCCCCCCC(=O)N[C@@H](CCCCN)C(=O)O [C12K(NC12K)2] | > 16
CCCCCCCCCCCC(=O)N[C@@H](CCCCN)C(=O)NCCCCCCCCCCCC(=O)N[C@@H](CCCCN)C(=O)NCCCCCCCCCCCC(=O)N[C@@H](CCCCN)C(=O)NCCCCCCCCCCCC(=O)N[C@@H](CCCCN)C(N)=O [C12K(NC12K)3NH2] | > 16
CCCCCCCCCCCC(=O)N[C@@H](CCCCN)C(=O)NCCCCCCCCCCCC(=O)N[C@@H](CCCCN)C(=O)NCCCCCCCCCCCC(=O)N[C@@H](CCCCN)C(=O)NCCCCCCCCCCCC(=O)N[C@@H](CCCCN)C(=O)O [C12K(NC12K)3] | > 16
CCCCCCCCCCCC(=O)N[C@@H](CCCCN)C(=O)NCCCCCCCCCCCC(=O)N[C@@H](CCCCN)C(=O)NCCCCCCCCCCCC(=O)N[C@@H](CCCCN)C(=O)NCCCCCCCCCCCC(=O)N[C@@H](CCCCN)C(=O)NCCCCCCCCCCCC(=O)N[C@@H](CCCCN)C(N)=O [C12K(NC12K)4NH2] | 37 ± 2.12
CCCCCCCCCCCC(=O)N[C@@H](CCCCN)C(=O)NCCCCCCCCCCCC(=O)N[C@@H](CCCCN)C(N)=O [C12KNC12KNH2] | > 16
CCCCCCCCCCCC(=O)N[C@@H](CCCCN)C(=O)NCCCCCCCCCCCC(=O)N[C@@H](CCCCN)C(=O)O [C12KNC12K] | > 16
NCCCC[C@H](NC(=O)CCCCCCCCCCCNC(=O)[C@H](CCCCN)NC(=O)CCCCCCCCCCCNC(=O)[C@@H](N)CCCCN)C(N)=O [K(NC12K)2NH2] | > 16
NCCCC[C@H](NC(=O)CCCCCCCCCCCNC(=O)[C@H](CCCCN)NC(=O)CCCCCCCCCCCNC(=O)[C@@H](N)CCCCN)C(=O)O [K(NC12K)2] | > 16
NCCCC[C@H](NC(=O)CCCCCCCCCCCNC(=O)[C@H](CCCCN)NC(=O)CCCCCCCCCCCNC(=O)[C@H](CCCCN)NC(=O)CCCCCCCCCCCNC(=O)[C@@H](N)CCCCN)C(N)=O [K(NC12K)3NH2] | > 16
NCCCC[C@H](NC(=O)CCCCCCCCCCCNC(=O)[C@H](CCCCN)NC(=O)CCCCCCCCCCCNC(=O)[C@H](CCCCN)NC(=O)CCCCCCCCCCCNC(=O)[C@@H](N)CCCCN)C(=O)O [K(NC12K)3] | > 16
NCCCC[C@H](NC(=O)CCCCCCCCCCCNC(=O)[C@H](CCCCN)NC(=O)CCCCCCCCCCCNC(=O)[C@H](CCCCN)NC(=O)CCCCCCCCCCCNC(=O)[C@H](CCCCN)NC(=O)CCCCCCCCCCCNC(=O)[C@@H](N)CCCCN)C(N)=O [K(NC12K)4NH2] | 50
NCCCC[C@H](NC(=O)CCCCCCCCCCCNC(=O)[C@H](CCCCN)NC(=O)CCCCCCCCCCCNC(=O)[C@H](CCCCN)NC(=O)CCCCCCCCCCCNC(=O)[C@H](CCCCN)NC(=O)CCCCCCCCCCCNC(=O)[C@H](CCCCN)NC(=O)CCCCCCCCCCCNC(=O)[C@@H](N)CCCCN)C(N)=O [K(NC12K)5NH2] | > 16
NCCCC[C@H](NC(=O)CCCCCCCCCCCNC(=O)[C@H](CCCCN)NC(=O)CCCCCCCCCCCNC(=O)[C@H](CCCCN)NC(=O)CCCCCCCCCCCNC(=O)[C@H](CCCCN)NC(=O)CCCCCCCCCCCNC(=O)[C@H](CCCCN)NC(=O)CCCCCCCCCCCNC(=O)[C@H](CCCCN)NC(=O)CCCCCCCCCCCNC(=O)[C@@H](N)CCCCN)C(N)=O [K(NC12K)6NH2] | > 16
NCCCC[C@H](NC(=O)CCCCCCCCCCCNC(=O)[C@H](CCCCN)NC(=O)CCCCCCCCCCCNC(=O)[C@H](CCCCN)NC(=O)CCCCCCCCCCCNC(=O)[C@H](CCCCN)NC(=O)CCCCCCCCCCCNC(=O)[C@H](CCCCN)NC(=O)CCCCCCCCCCCNC(=O)[C@H](CCCCN)NC(=O)CCCCCCCCCCCNC(=O)[C@H](CCCCN)NC(=O)CCCCCCCCCCCNC(=O)[C@@H](N)CCCCN)C(N)=O [K(NC12K)7NH2] | > 16
NCCCC[C@H](NC(=O)CCCCCCCCCCCNC(=O)[C@@H](N)CCCCN)C(N)=O [KNC12KNH2] | > 16
NCCCC[C@H](NC(=O)CCCCCCCCCCCNC(=O)[C@@H](N)CCCCN)C(=O)O [KNC12K] | > 16
